Where two headings read alike, the source gives them in different places.
Key:
cancer cells = assay: MTT assay, cancer cell lines taken together; assay type: cell-based; details: even at a high dosage, Figure S2
Protocol: The bioactivity of all the synthetic compounds was evaluated by a MTT assay (Table 1, Tables S1 and S2) against two leukemia cell lines, Molm-13 and NB4; two solid tumor cell lines, HeLa (human cervix cell line) and 4T1 (breast cancer cell line); and two normal cell lines, COS-7 (African green monkey kidney cell line) and rat PBMC (peripheral blood mononuclear cell line).
Cells were cultured in 96-well plates overnight, followed by adding 80 μL of a related medium containing compounds of different concentrations and dissolved in DMSO for 24 h or 48 h. Then, 40 μL of MTT (2.5 mg/mL) was added and the cells were incubated for another 4 h. The cells were then dissolved in 100 μL of 10% SDS solution or DMSO to release and dissolve the purple MTT products, followed by absorbance detection (BioTek, Winooski, VT, USA).

Molm-13 = assay: cells; assay type: cell-based; details: Homo sapiens
NB4 = assay: cells; assay type: cell-based; details: Homo sapiens
4T1 = assay: cells; assay type: cell-based; details: Mus musculus
HeLa = assay: cells; assay type: cell-based, human; details: Homo sapiens, HeLa
COS-7 = assay: cells; assay type: cell-based, African green monkey; details: Chlorocebus sabaeus
PBMC = assay: cells; assay type: cell-based, rat; details: Rattus norvegicus, PBMC
[1] = MOLM-13, 24 h, read-out: IC50 Molm
[2] = MOLM-13, 24 h, read-out: IC50 Molm 24 h
[3] = MOLM-13, 48 h, read-out: IC50 Molm
[4] = MOLM-13, 48 h, read-out: IC50 Molm 48 h
[5] = NB-4, 24 h, read-out: IC50 NB4 24 h
[6] = NB-4, 48 h, read-out: IC50 NB4 48 h
[7] = 4T1, 24 h, read-out: IC50 4T1 24 h
[8] = 4T1, 48 h, read-out: IC50 4T1 48 h
[9] = COS-7, 24 h, read-out: IC50 COS-7 24 h
[10] = COS-7, 48 h, read-out: IC50 COS-7 48 h

| SMILES | anti-proliferation activity to cancer cells (cancer cells) | IC50 (Molm-13; [1]) [nM] | IC50 (Molm-13; [2]) [nM] | IC50 (Molm-13; [3]) [nM] | IC50 (Molm-13; [4]) [nM] | IC50 (NB4; NB-4, 24 h, read-out: IC50 NB4) [nM] | IC50 (NB4; [5]) [nM] | IC50 (NB4; NB-4, 48 h, read-out: IC50 NB4) [nM] | IC50 (NB4; [6]) [nM] | IC50 (4T1; [7]) [nM] | IC50 (4T1; [8]) [nM] | IC50 (HeLa; 24 h, read-out: IC50 HeLa 24 h) [nM] | IC50 (HeLa; 48 h, read-out: IC50 HeLa 48 h) [nM] | IC50 (COS-7; [9]) [nM] | IC50 (COS-7; [10]) [nM] | IC50 (PBMC; 24 h, read-out: IC50 PBMC 24 h) [nM] | IC50 (PBMC; 48 h, read-out: IC50 PBMC 48 h) [nM] | IC50 (4T1; 4T1, 24 h, read-out: IC50 4T1) [nM] | IC50 (4T1; 4T1, 48 h, read-out: IC50 4T1) [nM] |
| --- | --- | --- | --- | --- | --- | --- | --- | --- | --- | --- | --- | --- | --- | --- | --- | --- | --- | --- | --- |
| O=C(O)c1ccc2c(c1)OCO2 [1,3-benzodioxole derivative, piperonylic acid] | no anti-proliferation activity |  |  |  |  |  |  |  |  |  |  |  |  |  |  |  |  |  |  |
| CC(=O)Oc1ccc(C(=O)Nc2ccc([As]3SCCCS3)cc2)cc1 [AZ2, 4-((4-(1,3,2-dithiarsinan-2-yl)phenyl)carbamoyl)phenyl acetate] |  | 1110 ± 100 | 1100 | 1010 ± 20 | 1000 | 600 ± 50 | 600 | 600 ± 30 | 600 | 2000 | 1000 | 800 | 500 | 2200 | 2100 | 5200 | 4900 |  |  |
| COc1ccc(C(=O)Nc2ccc([As]3SCCCS3)cc2)cc1OC [DAZ2, N-(4-(1,3,2-dithiarsinan-2-yl)phenyl)-3,4-dimethoxybenzamide] |  |  | 900 |  | 750 |  | 1710 |  | 1140 | 1500 | 1200 | 2300 | 1060 | 7100 | 3300 | 6200 | 5700 |  |  |
| COc1ccc(C(=O)Nc2ccccc2[As]2SCCCS2)cc1OC [DAZ5, N-(2-(1,3,2-dithiarsinan-2-yl)phenyl)-3,4-dimethoxybenzamide] |  |  | 450 |  | 320 |  | 800 |  | 510 | 600 | 500 | 810 | 550 | 1610 | 1270 | 4100 | 3500 |  |  |
| CCc1ccc(C(=O)Nc2ccc([As]3SCCCS3)cc2)cc1 [EZ2, N-(4-(1,3,2-dithiarsinan-2-yl)phenyl)-4-ethylbenzamide] |  |  | 1100 |  | 1020 |  | 410 |  | 300 | 1400 | 1400 | 1010 | 810 | 4200 | 2100 | 3700 | 2900 | 1400 ± 120 | 1400 ± 120 |
| O=C(Nc1ccc([As]2SCCCS2)cc1)c1ccc(F)cc1 [FZ2, N-(4-(1,3,2-dithiarsinan-2-yl)phenyl)-4-fluorobenzamide] |  |  | 1200 |  | 1000 |  | 400 |  | 300 | 2300 | 2200 | 1200 | 400 | 3500 | 2200 | 5500 | 4700 |  |  |
| O=C(Nc1ccccc1[As]1SCCCS1)c1ccc(F)cc1 [FZ5, N-(2-(1,3,2-dithiarsinan-2-yl)phenyl)-4-fluorobenzamide] |  | 500 ± 10 | 500 | 500 ± 20 | 500 | 150 ± 100 | 150 | 150 ± 20 | 150 | 700 | 600 | 350 | 150 | 1100 | 800 | 2400 | 1820 |  |  |
| COc1cc(C(=O)Nc2ccc([As]3SCCCS3)cc2)cc(OC)c1O [HDZ2, N-(4-(1,3,2-dithiarsinan-2-yl)phenyl)-4-hydroxy-3,5-dimethoxybenzamide] |  | 600 ± 120 | 600 | 600 ± 120 | 600 |  | 800 |  | 500 | 1000 | 1010 | 2000 | 1010 | 9100 | 3500 | 5800 | 4900 |  |  |
| Cc1ccc(C(=O)Nc2ccc([As]3SCCCS3)cc2)cc1 [MZ2, N-(4-(1,3,2-dithiarsinan-2-yl)phenyl)-4-methylbenzamide] |  |  | 1200 |  | 800 |  | 400 |  | 300 | 1200 | 910 | 610 | 400 | 3400 | 1210 | 3400 | 2700 |  | 400 ± 110 |
| O=C(Nc1ccc([As]2SCCCS2)cc1)c1ccc2c(c1)OC(F)(F)O2 [PFZ2, N-(4-(1,3,2-dithiarsinan-2-yl)phenyl)-2,2-difluorobenzo[d][1,3]dioxole-5-carboxamide] |  |  | 800 |  | 700 |  | 500 |  | 300 | 1000 | 800 | 500 | 150 | 6000 | 3500 | 6300 | 5700 |  |  |
| O=C(Nc1ccc([As]2SCCCS2)cc1)c1ccc2c(c1)OCO2 [PZ2, N-(4-(1,3,2-dithiarsinan-2-yl)phenyl)benzo[d][1,3]dioxole-5-carboxamide] |  |  | 1060 |  | 750 | 850 ± 100 | 700 |  | 440 | 2600 | 3400 | 700 | 440 | 4100 | 1750 | 6400 | 5300 | 2550 ± 220 | 3350 ± 420 |
| O=C(Nc1ccccc1[As]1SCCCS1)c1ccc2c(c1)OCO2 [PZ5, N-(2-(1,3,2-dithiarsinan-2-yl)phenyl)benzo[d][1,3]dioxole-5-carboxamide] |  |  | 270 |  | 240 | 300 ± 30 | 260 | 200 ± 20 | 140 | 400 | 830 | 260 | 140 | 1010 | 820 | 5000 | 4500 |  |  |
| COc1cc(C(=O)Nc2ccc([As]3SCCCS3)cc2)cc(OC)c1OC [TAZ2, N-(4-(1,3,2-dithiarsinan-2-yl)phenyl)-3,4,5-trimethoxybenzamide] |  |  | 1600 |  | 1500 |  | 1000 |  | 600 | 3500 | 2200 | 2000 | 1040 | 9100 | 5200 | 7300 | 6500 |  |  |
| COc1cc(C(=O)Nc2ccccc2[As]2SCCCS2)cc(OC)c1OC [TAZ5, N-(2-(1,3,2-dithiarsinan-2-yl)phenyl)-3,4,5-trimethoxybenzamide] |  |  | 710 |  | 700 |  | 200 |  | 150 | 700 | 700 | 800 | 500 | 2000 | 1800 | 2200 | 1540 | 700 ± 30 | 700 ± 30 |

Source: publication PMC9266561, “1,3-Benzodioxole Derivatives Improve the Anti-Tumor Efficiency of Arsenicals” (International Journal of Molecular Sciences, 2022)
